Laboratory results from patent publication EP0888346B1, “CORALYNE ANALOGS AS TOPOISOMERASE INHIBITORS” (RUTGERS, THE STATE UNIVERSITY OF NEW JERSEY, priority 1996, dated 1997).
Values after ≈ are worked out from the molar mass of the structure shown. Values joined by “and” are separate entries in the source; they are usually repeats but may differ in a detail not shown here. Equal values may be shown once. Read-outs that look alike come from different tables or passages of the source.

How the values were obtained:
[1] = test system: Human lymphoblast RPMI 8402 cells; experiment: MTT-microtiter plate tetrazolinium cytotoxicity assay (MTA); type: cell-based
Source text: (§1) The results were plotted and the IC50 then measured.

[2] = test system: glioblastoma cell line SF-268; experiment: MTA cytotoxicity assay, glioblastoma cells; type: cell-based; details: for IC50: Homo sapiens, SF-268, 96 h, read-out: Cytotoxicity SF-268
Method: as §1
(§2) The coralyne analog 7c was tested for its effectiveness against glioblastoma cells. The assay used was similar to that described above for the RPMI-8402 cell line. The results are shown in table 2 below which compares the effect of Compound 7c against the leukemia cell line (RPMI 8402), epidermal carncinoma (KB3-1) and glioblastoma (SF-268): Table 2

[3] = test system: human epidermoid carcinoma KB 3-1 cell line; experiment: MTA cytotoxicity assay, epidermoid carcinoma cells; type: cell-based; details: KB 3-1, 96 h
Method: as §1, §2

[4] = test system: yeast cells expressing functional yeast topoisomerase I; experiment: Yeast cytotoxicity assay, strain expressing wild-type yeast topo I; type: cell-based, S. cerevisiae; details: plates with 1 µM drug (camptothecin 0.5 µM), 3 days at 30°C
Source text: (§3) It has been established that yeast can survive when topoisomerase I function is obliterated, and that the topoisomerase I poisons only kill cells having a functional topoisomerase I (Bjornsti et al. Cancer Res. 49:6318-6323 (1989)).
(§4) The topoisomerase I-specific in vivo cytotoxicity assay was adapted from Knab et al. (Knab et al., J. Biol. Chem. 268:22322-22330 (1993)). In this system, various topo I genes cloned into the single copy yeast plasmid vector, YCpGAL1 (Knab et al., J. Biol. Chem. 268:22322-22330 (1993)), are expressed under the control of the GAL1 promoter in the JN2-134 strain of S. cerevisiae (MATa, rad52::LEU2, trp1, ade2-1,his7, ura3-52, isel, top1-1, leu2) (Bjornsti et al., Cancer Res. 49:6318-6323 (1989)). The topo I constructs in the vector are, respectively, the wild-type yeast topo I (YCpGAL-ScTOP1), a non-functional yeast topo I where the active site tyrosine-727 is mutated to a phenylalanine (YCpGAL1-Sctop1Y727F) (Knab et al., J. Biol. Chem. 268:22322-22330 (1993)), and the wild type human topoisomerase I (YCpGAL-hTOP1) (Bjornsti et al., Cancer Res. 49:6318-6323 (1989)). To qualitatively test the cytotoxicity and the topo I specificity of the drugs, yeast cells containing the specific plasmid were serially diluted (5-fold) and were grown in dropout medium supplemented with uracil and 2% galactose In addition, the plates contained: A: Control, no drug in the plate; B: Camptothecin (CPT), 0.5 µM; C: Coralyne, 1 µM; D: Methylenedioxy-dihydro-demethyl-coralyne (MDD-Coralyne), 1 µM, and E: Nitidine, 1 µM. The plates were grown for 3 days at 30°C to assess the lethal effect of the different compounds on the various topoisomerase I enzymes expressed in S. cerevisiae.and the drug being tested.

[5] = test system: yeast cells expressing non-functional yeast topoisomerase I; experiment: Yeast cytotoxicity assay, strain expressing non-functional yeast topo I; type: cell-based, S. cerevisiae; details: plates with 1 µM drug (camptothecin 0.5 µM), 3 days at 30°C
Source text: as §3, §4

[6] = test system: yeast cells expressing human topoisomerase I; experiment: Yeast cytotoxicity assay, strain expressing human topo I; type: cell-based, S. cerevisiae; details: plates with 1 µM drug (camptothecin 0.5 µM), 3 days at 30°C
Source text: as §3, §4

[7] = test system: camptothecin-resistant CPT-K5 cells; experiment: MTT-microtiter plate tetrazolinium cytotoxicity assay (MTA), camptothecin-resistant cells
Method: The IC50 of the drugs tested were determined by the MTT-microtiter plate tetrazolinium cytotoxicity assay (MTA) (Mosmann, T., J. Immunol. Methods 65:55-63 (1983); Denizot et al., J. Immunol. Methods 89:271-277 (1986)). Human lymphoblast RPMI 8402 cells and their camptothecin-resistant CPT-K5 cells (Andoh et al., Proc. Natl. Acad. Sci., USA 84:5565-5569 (1987)) were kindly provided by Dr. Toshiwo Andoh (Aichi Cancer Center Research Institute, Nagoya, Japan). […] Cells (2000 cells/well, seeded in […] growth medium) were grown in suspension at 37°C in 5% CO2 and maintained by regular passage in RPMI medium supplemented with 10% heat inactivated fetal bovine serum, L-glutamine (2 mM), penicillin (100 U/ml), and streptomycin (0.1 mg/ml). The cells were exposed continuously for 4 days to different drug concentrations, and assayed at the end of the fourth day. Each concentration and the no drug control were repeated at least twice in 6 replica wells. The results were plotted and the IC50 then measured. The drug sensitive human epidermoid carcinoma KB 3-1 cell line and its vinblastine-selected multidrug-resistant variant KB-V1 cells (Akiyama et al., Genetics 11:117-126 (1985)) were kindly provided by Dr. Michael Gottesmann (National Cancer Institute). They were grown as monolayer cultures at 37°C in 5% CO2 and maintained by regular passage in Dulbecco's minimal essential medium supplemented with 10% heat inactivated fetal bovine serum. KB-V1 cells were maintained in the presence of […] vinblastine.

[8] = molecular target: T1, human topoisomerase I (Homo sapiens, UniProt P11387); experiment: Topo I cleavage assay (plasmid YEpG DNA); type: biochemical; details: for Topo I-mediated DNA cleavage (REC, Relative Effective Concentration): concentration relative to camptothecin (CPT) = 1 producing the same cleavage on the plasmid DNA
T1 construct: 15 amino acid vector-derived fusion (pET-11a leader); made in house; host or cells: E. coli BL21(DE3)
T1 sequence (P11387 1-765): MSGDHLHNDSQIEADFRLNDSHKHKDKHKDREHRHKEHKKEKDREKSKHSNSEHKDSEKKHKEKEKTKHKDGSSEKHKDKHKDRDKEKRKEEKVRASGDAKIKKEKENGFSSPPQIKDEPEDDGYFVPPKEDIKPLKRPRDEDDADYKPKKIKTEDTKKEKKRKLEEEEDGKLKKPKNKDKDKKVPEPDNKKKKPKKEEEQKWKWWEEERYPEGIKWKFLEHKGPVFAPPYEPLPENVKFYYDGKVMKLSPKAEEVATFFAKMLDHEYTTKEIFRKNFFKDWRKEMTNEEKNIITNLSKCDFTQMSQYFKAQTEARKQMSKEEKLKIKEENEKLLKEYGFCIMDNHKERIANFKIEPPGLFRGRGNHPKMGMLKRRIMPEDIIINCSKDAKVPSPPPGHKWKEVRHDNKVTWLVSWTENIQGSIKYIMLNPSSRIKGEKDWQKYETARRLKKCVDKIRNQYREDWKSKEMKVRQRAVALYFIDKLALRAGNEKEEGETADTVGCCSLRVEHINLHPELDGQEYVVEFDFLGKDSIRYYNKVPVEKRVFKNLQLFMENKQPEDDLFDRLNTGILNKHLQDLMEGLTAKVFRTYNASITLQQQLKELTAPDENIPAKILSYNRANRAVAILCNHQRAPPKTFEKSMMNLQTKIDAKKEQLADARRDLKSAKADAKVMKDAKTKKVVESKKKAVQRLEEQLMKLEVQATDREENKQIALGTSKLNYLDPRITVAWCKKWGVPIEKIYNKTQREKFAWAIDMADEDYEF
Source text: To obtain large quantity of human topoisomerase I, the human topoisomerase I cDNA was cloned into the pET-11a vector, in which transcription of the cDNA is under the control of the inducible T7 promoter (Studier et al., Methods in Enzymol., Vol. 185:60-89, San Diego: Academic Press (1990)). Briefly, a 3.4 kb DNA fragment containing the entire coding sequence of human topoisomerase I and approximately 1 kb of untranslated region downstream of the stop codon was isolated from the plasmid YCpGAL1-hTOP1 (Bjornsti et al., Cancer Res. 49:6318-6323 (1989)) by cutting at the BamHI and EcoRI sites. The vector pET-11a was cut with the same restriction enzymes, dephosphorylated and ligated to the insert in the proper reading-frame downstream of the vector cloning site. The ligation mixture was used to transform E. coli, the correct clone pET1B was isolated (see figure 2A for the map) and its identity confirmed by restriction mapping. Since the translational start in pET is positioned at an upstream NdeI site, the expressed topoisomerase I has a 15 amino acid fusion at its N-terminus. pET1B was then transformed into E. coli BL21(DE3), and, upon induction with 0.4 mM IPTG for 1 hour, the bacterial lysate was analyzed by 10 % SDS-PAGE. Expression was confirmed by Western blotting using rabbit antibodies against human topoisomerase I. Isolation of the expressed protein was done by a simple procedure. Briefly, E. coli cells were lysed by repeated sonic bursts. The sonic extract was made in 1 M NaCl and 6% polyethylene glycol (PEG) to remove nucleic acids. The PEG supernatant was chromatographed directly on a hydroxyapatite column. Expressed human DNA topoisomerase I was eluted at the 0.6 M potassium phosphate step. The eluted enzyme was dialyzed against 50% glycerol, 30 mM potassium phosphate (pH 7.0), 1 mM dithiothreitol (DTT) and 0.1 mM EDTA and stored at -20°C.
(§5) Cleavage assays for the recombinant topoisomerases I and calf thymus topoisomerases I and II were done as described (Liu et al., J. Biol. Chem. 258:15365-15370 (1983)). The plasmid YEpG DNA used for the cleavage assays was prepared and labeled at its 3'-end using the published procedures.

[9] = test system: calf thymus topoisomerase II; experiment: Topo II cleavage assay (plasmid YEpG DNA); type: biochemical; details: concentration relative to VM-26 = 1 producing the same cleavage on the plasmid DNA
Source text: The plasmid pET11a and the E. coli strain BL21(DE3) used for enzyme expression were purchased from Novagen. IPTG was purchased from Sigma. The ECL system used for the Western blotting analysis of bacterial lysates was from Amersham (UK). All the restriction enzymes and Vent polymerase were from New England Biolabs. Mammalian topoisomerase II was isolated from calf thymus glands according to the published procedure (Halligan et al., J. Biol. Chem. 260:2475-2482 (1985)). The single copy yeast plasmids YCpGAL1 expressing various topoisomerase I genes in JN2-134 yeast strain were a kind gift of Dr. M-A. Bjornsti (Thomas Jefferson University, Philadelphia, PA). All bacterial and yeast media were from Difco (Detroit, MI), while cell culture media were purchased from Gibco-BRL (Gaithersburg, MD).
as §5

[10] = Homo sapiens, CPT-K5, 96 h, read-out: Cytotoxicity IC50 CPT-K5
[11] = Homo sapiens, RPMI 8402, 96 h, read-out: Cytotoxicity IC50 RPMI

| Topo I-mediated DNA cleavage (REC, Relative Effective Concentration) [8] | Molecule | IC50 [7, 10] [µM] | IC50 [1, 11] [µM] | Topo II-mediated DNA cleavage (REC, Relative Effective Concentration) [9] | further results |
| --- | --- | --- | --- | --- | --- |
| 10 | COc1cc2cc3c4ccc5c(c4cc[n+]3c(C)c2cc1OC)OCO5 [Compound 2c, 8-Methyl-3,4-methylenedioxy-10,11-dimethoxydibenzo[a,g]quinolizinium acetosulfate] | 41 | 2 | 10 |  |
| 20 | COc1cc2c(cc1OC)-c1cc3cc(OC)c(OC)cc3c[n+]1CC2.[Cl-] [Compound 8a, 5,6-Dihydro-2,3,10,11-tetramethoxydibenzo[a,g]quinolizinium chloride] | 18 | 10 | >1000 |  |
| 1000 | 6,7-Dimethoxy-1,2-dimethyl-3-(3, 4-methylenedioxyphenyl)isoquinolinium methosulfate [Compound 14b] |  |  | 1000 | IC50 ([7]; cpt-k5 cells, 96 h): 11 µM; cytotoxicity against RPMI 8402 cells (in words) [1]: appreciable cytotoxicity; IC50 ([1]; rpmi 8402 cells, 96 h): 6.7 µM |
| 1 | COc1cc2cc3[n+](cc2cc1OC)CCc1c-3ccc2c1OCO2.[Cl-] [Compound 8c, 5,6-Dihydro-3,4-methylenedioxy-10,11-dimethoxydibenzo[a,g]quinolizinium chloride] | 27 | 8.1 | 50 | EC (total cleavage) ([8]; read-out: concentration giving total cleavage of DNA in the presence of topoisomerase I): 0.27 µM and 0.1 µg/mL |

More lines, now with the values behind:

| Molecule | Topo I-mediated DNA cleavage (REC, Relative Effective Concentration) [8] | IC50 [7, 10] [µM] | IC50 [1, 11] [µM] | Topo II-mediated DNA cleavage (REC, Relative Effective Concentration) [9] | further results |
| --- | --- | --- | --- | --- | --- |
| COc1cccc2c1C(=O)c1c(O)c3c(c(O)c1C2=O)C[C@@](O)(C(=O)CO)C[C@@H]3O[C@H]1C[C@H](N)[C@H](O)[C@H](C)O1 [doxorubicine] |  |  |  |  | IC50 ([1]; Homo sapiens, RPMI 8402, 96 h, leukemia cell line, Table 2, read-out: Cytotoxicity RPMI 8402): 0.8 µg/mL; IC50 ([2]; glioblastoma, Table 2): 0.8 µg/mL (≈ 1.47 µM); IC50 ([3]; epidermal carcinoma, Table 2, read-out: Cytotoxicity KB3-1): 0.1 µg/mL (≈ 0.184 µM) |
| Methylenedioxy-dihydro-demethyl-coralyne [MDD-coralyne] |  |  |  |  | cytotoxicity against yeast cells expressing functional yeast topoisomerase I (in words) [4]: not cytotoxic; cytotoxicity against yeast cells expressing non-functional yeast topoisomerase I (in words) [5]: not cytotoxic; cytotoxicity against yeast cells expressing human topoisomerase I (in words) [6]: highly cytotoxic |
| COc1cc2cc3[n+](c(C)c2cc1OC)CCc1c-3ccc2c1OCO2 [Compound 7c, 5,6-Dihydro-8-methyl-3,4-methylenedioxy-10,11-dimethoxydibenzo[a,g]quinolizinium acetosulfate] | 10 | 6.1 | 0.6 | 30 | IC50 ([1]; Homo sapiens, RPMI 8402, 96 h, read-out: Cytotoxicity RPMI 8402): 0.3 µg/mL; cytotoxicity against glioblastoma cells (in words) [2]: exceptional cytotoxicity; IC50 [2]: 0.008 µg/mL; IC50 ([3]; read-out: Cytotoxicity KB3-1): 0.06 µg/mL |
| Cc1nc(-c2ccc(O)c(O)c2)cc2cc(O)c(O)cc12 [Compound 13, 6,7-Dihydroxy-1-methyl-3-(3,4-dihydroxyphenyl)isoquinoline] | >1000 | 99 | 7.1 | >1000 | cytotoxicity against RPMI 8402 cells (in words) [1]: appreciable cytotoxicity |
